In ChEMBL document CHEMBL5108088, “N-Methylamide-structured SB366791 derivatives with high TRPV1 antagonistic activity: toward PET radiotracers to visualize TRPV1” (RSC Med Chem, 2022):

Assays:
[1] = Drug uptake in iv dosed Sprague-Dawley rat brain striatum assessed as high radioactivity in striatum and measured upto 60 mins by PET imaging analysis; format: ADME, organism-based; conditions: in vivo, 1 h
[2] = Drug uptake in iv dosed Sprague-Dawley rat urinary bladder assessed as high radioactivity in urinary bladder and measured upto 60 mins by PET imaging analysis; format: ADME, organism-based; conditions: in vivo, 1 h
[3] = Drug uptake in iv dosed Sprague-Dawley rat skin assessed as high radioactivity in body surface and measured upto 60 mins by PET imaging analysis; format: ADME, organism-based, Skin of body; conditions: in vivo, 1 h
[4] = Drug uptake in iv dosed Sprague-Dawley rat brain assessed as high radioactivity in brain cortical area and measured upto 60 mins by PET imaging analysis; format: ADME, organism-based; conditions: in vivo, 1 h
[5] = Drug uptake in iv dosed Sprague-Dawley rat gastrointestinal tract assessed as high radioactivity in gastrointestinal tract and measured upto 60 mins by PET imaging analysis; format: ADME, organism-based; conditions: in vivo, 1 h
[6] = Drug uptake in iv dosed Sprague-Dawley rat liver assessed as high radioactivity in liver and measured upto 60 mins by PET imaging analysis; format: ADME, organism-based; conditions: in vivo, 1 h
[7] = Drug uptake in iv dosed Sprague-Dawley rat brain medulla oblongata assessed as high radioactivity in medulla oblongata and measured upto 60 mins by PET imaging analysis; format: ADME, organism-based; conditions: in vivo, 1 h
[8] = Drug uptake in iv dosed Sprague-Dawley rat brain hypothalamus assessed as high radioactivity in hypothalamus and measured upto 60 mins by PET imaging analysis; format: ADME, organism-based; conditions: in vivo, 1 h
[9] = Drug uptake in iv dosed Sprague-Dawley rat brain thalamus assessed as high radioactivity and measured upto 60 mins by PET imaging analysis; format: ADME, organism-based; conditions: in vivo, 1 h
[10] = Drug uptake in iv dosed Sprague-Dawley rat brain cerebellum assessed as high radioactivity in brain cerebellum and measured upto 60 mins by PET imaging analysis; format: ADME, organism-based; conditions: in vivo, 1 h
[11] = target: Transient receptor potential cation channel subfamily V member 1 (Rattus norvegicus, UniProt O35433); assay: Antagonist activity at rat TRPV1 expressed in human HEK293 cells assessed as inhibition of capsaicin-induced influx by measuring intracellular calcium accumulation by fura-2 dye based fluorimetric assay; format: cell-based
Sequence of Transient receptor potential cation channel subfamily V member 1 (O35433 whole entry): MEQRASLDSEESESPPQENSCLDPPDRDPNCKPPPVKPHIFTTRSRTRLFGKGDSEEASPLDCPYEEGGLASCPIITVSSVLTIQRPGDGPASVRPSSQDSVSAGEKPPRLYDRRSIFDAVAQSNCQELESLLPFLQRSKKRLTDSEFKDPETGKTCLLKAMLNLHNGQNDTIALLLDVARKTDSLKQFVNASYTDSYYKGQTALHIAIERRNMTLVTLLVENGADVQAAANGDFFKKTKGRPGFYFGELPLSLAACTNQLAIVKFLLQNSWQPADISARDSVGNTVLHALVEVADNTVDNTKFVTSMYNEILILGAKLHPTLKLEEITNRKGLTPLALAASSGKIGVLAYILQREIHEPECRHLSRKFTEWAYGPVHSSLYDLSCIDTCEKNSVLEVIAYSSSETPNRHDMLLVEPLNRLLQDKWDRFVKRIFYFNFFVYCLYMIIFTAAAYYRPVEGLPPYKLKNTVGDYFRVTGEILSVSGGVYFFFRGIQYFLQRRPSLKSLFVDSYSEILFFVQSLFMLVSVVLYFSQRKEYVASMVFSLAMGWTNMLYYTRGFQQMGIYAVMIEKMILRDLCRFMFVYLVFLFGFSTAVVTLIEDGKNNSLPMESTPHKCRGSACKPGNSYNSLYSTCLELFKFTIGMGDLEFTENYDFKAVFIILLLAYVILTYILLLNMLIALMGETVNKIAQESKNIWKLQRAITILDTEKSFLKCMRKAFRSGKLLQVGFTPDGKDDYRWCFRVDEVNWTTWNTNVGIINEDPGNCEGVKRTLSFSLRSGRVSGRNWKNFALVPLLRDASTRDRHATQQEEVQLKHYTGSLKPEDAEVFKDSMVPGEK

CN(C(=O)/C=C/c1ccc(Cl)cc1)c1cccc(O[11CH3])c1
Drug uptake [1]: Active | Drug uptake [2]: Active | Drug uptake [3]: Active | Drug uptake [4]: Active | Drug uptake [5]: Active | Drug uptake [6]: Active | Drug uptake [7]: Active | Drug uptake [8]: Active | Drug uptake [9]: Active | Drug uptake [10]: Active

COc1cccc(NC(=O)/C=C/c2ccc(Cl)cc2)c1
IC50 [11]: 3.7 µM

CN(C(=O)/C=C/c1ccc(Cl)cc1)c1cccc(OCCC[18F])c1
Drug uptake [1]: Active | Drug uptake [4]: Active | Drug uptake [7]: Active | Drug uptake [8]: Active | Drug uptake [9]: Active

CN(C(=O)/C=C/c1ccc(Cl)cc1)c1cccc(OCCCF)c1
IC50 [11]: 1.1 µM

CN(C(=O)/C=C/c1ccc(Cl)cc1)c1cccc(OCCF)c1
IC50 [11]: 4.2 µM

COc1cccc(N(C)C(=O)/C=C/c2ccc(Cl)cc2)c1
IC50 [11]: 1.3 µM
